Source: PMC5398096 (Bioorganic & medicinal chemistry letters, 2017)
Read-outs that look alike come from different tables or passages of the source. Values belong to the compound of their own block, whether it stands above or below them.

Columns and labels:
[1] = test system: A431 cancer cells; conditions: read-out: A431 Cytotoxicity IC50; previously evaluated lead compounds; cited from earlier work
[2] = biological target: T1, human DHFR (Homo sapiens, UniProt P00374); conditions: number in parentheses; at the concentration stated in the same cell (μM); cited from earlier work
T1 sequence (P00374 1-187): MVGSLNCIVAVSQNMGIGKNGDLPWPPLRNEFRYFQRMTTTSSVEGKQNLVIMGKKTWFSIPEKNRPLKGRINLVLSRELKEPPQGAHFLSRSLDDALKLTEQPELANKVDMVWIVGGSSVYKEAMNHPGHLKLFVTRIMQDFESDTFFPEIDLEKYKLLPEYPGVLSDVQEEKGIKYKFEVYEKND

[3] = biological target: T2, E. coli DHFR (Escherichia coli, UniProt P0ABQ4); conditions: number in parentheses; at the concentration stated in the same cell (μM); cited from earlier work
[4] = test system: COLO-205 xenograft; conditions: COLO-205 xenograft mouse model, cited from earlier work
[5] = biological target: VEGFR-2 (Flk-1) (Homo sapiens, UniProt P35968); experiment: VEGFR-2 kinase inhibition, phosphotyrosine ELISA in whole cells; assay type: cell-based; conditions: for VEGFR-2 assay: fold less potent than semaxanib: relative to standard semaxanib
[6] = biological target: EGFR (Homo sapiens, UniProt P00533); experiment: EGFR kinase inhibition, phosphotyrosine ELISA in whole cells; assay type: cell-based; conditions: relative to standard 24
[7] = biological target: PDGFR-β (Homo sapiens, UniProt P09619); experiment: PDGFR-β kinase inhibition, phosphotyrosine ELISA in whole cells; assay type: cell-based; conditions: for PDGFR-β assay: fold less active than DMBI: relative to standard DMBI; for PDGFR-β assay: activity in words: even at 200 micromolar concentrations
[8] = test system: A431 cancer cells; experiment: A431 cytotoxicity; assay type: cell-based, human; conditions: for A431 cytotoxicity assay: fold less active than cisplatin: relative to standard cisplatin
[9] = biological target: E. coli TS (Escherichia coli, UniProt P0A884); experiment: Thymidylate synthase; assay type: biochemical; conditions: number in parentheses; at the concentration stated in the same cell (μM)
[10] = biological target: human TS (Homo sapiens, UniProt P04818); experiment: Thymidylate synthase; assay type: biochemical; conditions: relative to raltitrexed (RTX)
[11] = biological target: T2, E. coli DHFR; experiment: Dihydrofolate reductase; assay type: biochemical; conditions: number in parentheses; at the concentration stated in the same cell (μM)

Chain of PDGFR-β (P09619 33-1106): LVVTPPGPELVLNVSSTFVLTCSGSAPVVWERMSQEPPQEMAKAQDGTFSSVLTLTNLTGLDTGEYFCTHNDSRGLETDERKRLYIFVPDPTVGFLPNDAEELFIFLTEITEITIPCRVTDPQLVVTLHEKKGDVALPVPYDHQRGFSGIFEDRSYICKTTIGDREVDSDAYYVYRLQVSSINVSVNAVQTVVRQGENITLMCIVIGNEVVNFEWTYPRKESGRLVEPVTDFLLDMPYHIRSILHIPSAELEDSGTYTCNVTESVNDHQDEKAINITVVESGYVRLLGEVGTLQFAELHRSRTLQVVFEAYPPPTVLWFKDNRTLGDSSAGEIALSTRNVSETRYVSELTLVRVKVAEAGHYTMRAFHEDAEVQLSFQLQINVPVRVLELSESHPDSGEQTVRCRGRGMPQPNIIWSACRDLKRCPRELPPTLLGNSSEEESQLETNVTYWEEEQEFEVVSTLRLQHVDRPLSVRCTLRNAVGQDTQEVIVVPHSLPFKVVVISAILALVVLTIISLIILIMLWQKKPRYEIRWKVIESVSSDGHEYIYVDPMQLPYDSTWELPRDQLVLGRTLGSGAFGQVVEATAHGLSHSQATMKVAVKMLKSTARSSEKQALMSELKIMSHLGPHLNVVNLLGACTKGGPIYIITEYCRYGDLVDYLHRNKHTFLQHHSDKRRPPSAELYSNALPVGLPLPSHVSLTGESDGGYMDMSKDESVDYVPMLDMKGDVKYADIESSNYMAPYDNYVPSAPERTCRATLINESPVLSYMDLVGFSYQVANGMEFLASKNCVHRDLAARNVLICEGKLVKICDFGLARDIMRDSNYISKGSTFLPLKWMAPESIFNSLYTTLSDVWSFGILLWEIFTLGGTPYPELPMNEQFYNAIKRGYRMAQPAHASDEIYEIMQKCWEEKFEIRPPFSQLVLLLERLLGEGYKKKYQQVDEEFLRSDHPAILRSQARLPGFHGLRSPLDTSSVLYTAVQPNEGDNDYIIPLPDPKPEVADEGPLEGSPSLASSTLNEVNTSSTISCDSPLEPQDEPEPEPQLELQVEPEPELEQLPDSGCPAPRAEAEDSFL
T2 sequence (P0ABQ4 whole entry): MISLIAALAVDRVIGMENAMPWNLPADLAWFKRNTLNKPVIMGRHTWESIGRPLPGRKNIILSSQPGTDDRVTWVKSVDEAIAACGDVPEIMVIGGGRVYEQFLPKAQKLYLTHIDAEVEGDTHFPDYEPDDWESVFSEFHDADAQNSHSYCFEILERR
Chain of human TS (P04818 whole entry): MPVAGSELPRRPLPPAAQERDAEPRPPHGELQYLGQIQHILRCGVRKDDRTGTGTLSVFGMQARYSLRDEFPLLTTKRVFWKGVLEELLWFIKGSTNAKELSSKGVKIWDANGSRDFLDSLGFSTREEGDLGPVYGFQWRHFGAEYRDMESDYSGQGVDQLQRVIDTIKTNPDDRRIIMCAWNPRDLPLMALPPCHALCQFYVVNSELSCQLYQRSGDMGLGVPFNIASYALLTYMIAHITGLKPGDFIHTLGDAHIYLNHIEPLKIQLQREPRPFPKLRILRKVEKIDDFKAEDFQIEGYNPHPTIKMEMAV
Chain of VEGFR-2 (Flk-1) (P35968 20-1356): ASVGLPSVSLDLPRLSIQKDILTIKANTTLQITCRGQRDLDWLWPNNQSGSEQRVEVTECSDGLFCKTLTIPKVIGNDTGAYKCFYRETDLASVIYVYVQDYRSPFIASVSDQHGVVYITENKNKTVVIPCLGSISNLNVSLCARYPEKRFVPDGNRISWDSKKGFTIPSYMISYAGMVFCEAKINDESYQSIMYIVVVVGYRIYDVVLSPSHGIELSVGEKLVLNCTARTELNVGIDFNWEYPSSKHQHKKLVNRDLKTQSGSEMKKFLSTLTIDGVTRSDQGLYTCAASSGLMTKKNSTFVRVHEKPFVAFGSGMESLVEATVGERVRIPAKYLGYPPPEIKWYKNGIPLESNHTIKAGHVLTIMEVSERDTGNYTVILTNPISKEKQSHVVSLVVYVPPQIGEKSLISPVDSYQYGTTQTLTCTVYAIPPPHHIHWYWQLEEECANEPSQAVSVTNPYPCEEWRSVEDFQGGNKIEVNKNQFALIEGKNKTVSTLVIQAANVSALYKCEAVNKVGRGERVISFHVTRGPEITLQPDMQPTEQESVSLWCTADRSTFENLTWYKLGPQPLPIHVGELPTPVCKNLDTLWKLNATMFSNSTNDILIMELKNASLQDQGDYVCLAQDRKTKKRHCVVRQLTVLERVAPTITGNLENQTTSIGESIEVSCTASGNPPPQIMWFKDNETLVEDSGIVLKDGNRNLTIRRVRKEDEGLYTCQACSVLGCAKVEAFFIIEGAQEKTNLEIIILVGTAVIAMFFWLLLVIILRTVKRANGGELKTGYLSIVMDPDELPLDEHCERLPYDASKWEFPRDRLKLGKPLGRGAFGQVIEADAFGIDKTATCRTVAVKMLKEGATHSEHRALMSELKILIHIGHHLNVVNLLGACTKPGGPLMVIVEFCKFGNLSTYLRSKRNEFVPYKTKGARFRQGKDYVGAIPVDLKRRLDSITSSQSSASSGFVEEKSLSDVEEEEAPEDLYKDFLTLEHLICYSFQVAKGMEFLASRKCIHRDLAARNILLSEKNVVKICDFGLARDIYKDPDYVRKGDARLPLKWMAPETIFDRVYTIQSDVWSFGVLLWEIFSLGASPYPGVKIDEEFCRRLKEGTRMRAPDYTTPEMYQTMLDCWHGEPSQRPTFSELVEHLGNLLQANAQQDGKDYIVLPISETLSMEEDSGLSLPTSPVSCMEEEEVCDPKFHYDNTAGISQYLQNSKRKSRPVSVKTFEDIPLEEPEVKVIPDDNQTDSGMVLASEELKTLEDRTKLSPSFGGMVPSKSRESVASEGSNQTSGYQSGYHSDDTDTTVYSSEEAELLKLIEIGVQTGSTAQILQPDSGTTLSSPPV
Chain of EGFR (P00533 25-1210): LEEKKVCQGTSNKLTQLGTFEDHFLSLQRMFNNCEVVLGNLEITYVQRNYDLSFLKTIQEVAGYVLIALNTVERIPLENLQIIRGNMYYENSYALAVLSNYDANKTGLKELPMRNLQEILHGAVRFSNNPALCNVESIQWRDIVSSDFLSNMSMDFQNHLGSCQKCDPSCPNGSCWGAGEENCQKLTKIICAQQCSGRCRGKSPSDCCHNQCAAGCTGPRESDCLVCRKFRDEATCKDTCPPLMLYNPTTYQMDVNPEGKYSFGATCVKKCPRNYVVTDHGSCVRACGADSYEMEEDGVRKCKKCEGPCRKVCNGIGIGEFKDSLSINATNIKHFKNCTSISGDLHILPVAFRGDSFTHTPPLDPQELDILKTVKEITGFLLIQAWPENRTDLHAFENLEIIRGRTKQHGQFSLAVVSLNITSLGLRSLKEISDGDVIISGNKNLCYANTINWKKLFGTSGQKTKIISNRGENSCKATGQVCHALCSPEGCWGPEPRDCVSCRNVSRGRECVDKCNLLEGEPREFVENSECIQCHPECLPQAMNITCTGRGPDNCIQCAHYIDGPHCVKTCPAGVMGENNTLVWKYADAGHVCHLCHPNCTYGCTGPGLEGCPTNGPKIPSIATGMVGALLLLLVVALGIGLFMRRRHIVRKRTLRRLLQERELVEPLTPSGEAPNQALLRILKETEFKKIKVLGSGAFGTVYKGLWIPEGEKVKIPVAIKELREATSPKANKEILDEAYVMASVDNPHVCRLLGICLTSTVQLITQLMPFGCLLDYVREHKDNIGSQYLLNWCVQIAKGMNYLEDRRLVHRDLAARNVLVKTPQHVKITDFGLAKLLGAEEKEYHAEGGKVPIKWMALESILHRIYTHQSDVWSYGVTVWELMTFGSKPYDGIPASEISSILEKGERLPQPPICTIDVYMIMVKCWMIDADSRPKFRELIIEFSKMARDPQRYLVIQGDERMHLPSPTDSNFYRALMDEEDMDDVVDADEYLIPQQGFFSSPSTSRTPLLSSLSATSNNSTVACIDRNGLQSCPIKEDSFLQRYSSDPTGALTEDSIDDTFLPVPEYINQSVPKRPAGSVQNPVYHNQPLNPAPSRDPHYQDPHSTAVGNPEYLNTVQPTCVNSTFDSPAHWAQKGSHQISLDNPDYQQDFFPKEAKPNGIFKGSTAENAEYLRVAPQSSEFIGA
Chain of E. coli TS (P0A884 whole entry): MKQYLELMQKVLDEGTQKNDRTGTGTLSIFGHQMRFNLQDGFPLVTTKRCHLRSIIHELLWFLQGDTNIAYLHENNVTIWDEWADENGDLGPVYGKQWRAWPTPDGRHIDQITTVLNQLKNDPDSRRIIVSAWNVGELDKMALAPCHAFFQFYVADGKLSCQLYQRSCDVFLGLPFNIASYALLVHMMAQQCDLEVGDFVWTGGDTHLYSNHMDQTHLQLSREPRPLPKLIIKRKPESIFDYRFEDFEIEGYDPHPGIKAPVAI

Compound: Nc1nc(N)c2c(n1)[nH]c1cccc(Sc3ccccc3)c12 [Compound 1]
IC50 [1]: 49.2 ± 4.7 µM | DHFR Human, percent inhibition at the stated concentration [2]: 17% | DHFR E. coli, percent inhibition at the stated concentration [3]: 35% | tumor growth inhibition (TGI) ([4]; 35 mg/kg): 76% | liver metastases ([4]; compared with DMBI and control): significantly decreased | tumor blood vessels ([4]; compared with DMBI and control): significantly decreased

Compound: Cc1ccc(Sc2cccc3[nH]c4nc(N)nc(N)c4c23)cc1 [Compound 2]
IC50 [1]: 14.1 ± 2 µM | DHFR Human, percent inhibition at the stated concentration [2]: 7% | DHFR E. coli, percent inhibition at the stated concentration [3]: 27%

Compound: Nc1nc(N)c2c(n1)[nH]c1cccc(Sc3ccc4ccccc4c3)c12 [Compound 3]
VEGFR-2 assay: fold less potent than semaxanib [5]: 13 fold | EGFR assay: fold less active than standard 24 [6]: 100 fold | PDGFR-β assay: fold less active than DMBI [7]: 24 fold | A431 cytotoxicity assay: fold less active than cisplatin [8]: about 4 fold | TS E. coli, percent inhibition at the stated concentration [9]: 0%

VEGFR-2 assay: fold less potent than semaxanib [5]: 16 fold | EGFR assay: fold less active than standard 24 [6]: 835 fold | PDGFR-β assay: fold less active than DMBI [7]: about 16 fold | hTS assay: fold less active than RTX [10]: 6 fold
Compound: Nc1nc(N)c2c(n1)[nH]c1cccc(Sc3cccc4ccccc34)c12 [Compound 4]
A431 cytotoxicity assay: activity in words ([8]; even at 200 micromolar concentration): inactive

Compound: COc1ccc(OC)c(Sc2cccc3[nH]c4nc(N)nc(N)c4c23)c1 [Compound 5]
VEGFR-2 assay: fold less potent than semaxanib [5]: equipotent | EGFR assay: fold less active than standard 24 [6]: 22 fold | PDGFR-β assay: activity in words [7]: inactive | A431 cytotoxicity assay: fold less active than cisplatin [8]: about 4 fold | hTS assay: fold less active than RTX [10]: 3 fold | DHFR E. coli, percent inhibition at the stated concentration [11]: 0%

Compound: COc1ccc(Sc2cccc3[nH]c4nc(N)nc(N)c4c23)cc1 [Compound 6]
VEGFR-2 assay: fold less potent than semaxanib [5]: 15 fold | EGFR assay: fold less active than standard 24 [6]: about 100 fold | PDGFR-β assay: fold less active than DMBI [7]: about 16 fold | A431 cytotoxicity assay: fold less active than cisplatin [8]: about 6 fold | TS E. coli, percent inhibition at the stated concentration [9]: 0%

Compound: Nc1nc(N)c2c(n1)[nH]c1cccc(Sc3ccc(Cl)cc3)c12 [Compound 7]
VEGFR-2 assay: activity in words [5]: inactive | EGFR assay: fold less active than standard 24 [6]: 40 fold | PDGFR-β assay: activity in words [7]: inactive | A431 cytotoxicity assay: fold less active than cisplatin [8]: equipotent | hTS assay: fold more potent than RTX [10]: equipotent | DHFR E. coli, percent inhibition at the stated concentration [11]: 0%
